What was measured:
Assay type in all cases: in vivo
[1] = system: Echinocloa crus-galli; assay: Herbicidal pre-emergence action; details: pre-emergence method, 80 g/ha, greenhouse, visual assessment vs untreated controls
Outline: (§1)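 Visual percent damage score (100% = dead plants, 0% = as untreated control) taken three weeks after pre-emergence treatment. Compounds were wettable powders sprayed onto covering soil over seeds in sandy loam, 600 l/ha water with 0.2% wetting agent, several application amounts; pots kept in greenhouse.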

[2] = system: Lolium multiflorum; assay: Herbicidal pre-emergence action; details: pre-emergence method, 80 g/ha, greenhouse, visual assessment vs untreated controls
Outline: as §1

[3] = system: Setaria viridis; assay: Herbicidal pre-emergence action; details: pre-emergence method, 80 g/ha, greenhouse, visual assessment vs untreated controls
Outline: as §1

[4] = system: Alopecurus myosuroides; assay: Herbicidal pre-emergence action; details: pre-emergence method, 80 g/ha, greenhouse, visual assessment vs untreated controls
Outline: as §1

[5] = system: monocotylidonous and dicotylidonous weed and crop plants; assay: Herbicidal post-emergence action (other test plants); details: post-emergence method; for herbicidal effect against AVEFA (Avena fatua): 80 g/ha
Outline: (§2)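 Visual % herbicidal effect vs untreated controls (100% = plants dead, 0% = as control), ~3 wk after spraying. Plants sown in sandy loam, greenhouse-grown, treated at one-leaf stage (2–3 wk post-sowing). WP formulations, 600 l/ha water + 0.2% wetting agent, various doses.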

[6] = system: Echinocloa crus-galli; assay: Herbicidal post-emergence action; details: post-emergence method; for herbicidal effect against ECHCG (Echinochloa crus-galli): 80 g/ha
Outline: as §2

[7] = system: Lolium multiflorum; assay: Herbicidal post-emergence action; details: post-emergence method; for herbicidal effect against LOLMU (Lolium multiflorum): 80 g/ha
Outline: as §2

[8] = system: Setaria viridis; assay: Herbicidal post-emergence action; details: post-emergence method; for herbicidal effect against SETVI (Setaria viridis): 80 g/ha
Outline: as §2

[9] = system: Alopecurus myosuroides; assay: Herbicidal post-emergence action; details: post-emergence method; for herbicidal effect against ALOMY (Alopecurus myosuroides): 80 g/ha
Outline: as §2

[10] = system: monocotylidonous and dicotylidonous weed and crop plants; assay: Herbicidal pre-emergence action (other test plants); details: pre-emergence method, 80 g/ha, greenhouse, visual assessment vs untreated controls
Outline: as §1

SMILES	herbicidal effect ECHCG [1]	herbicidal effect LOLMU [2]	herbicidal effect SETVI [3]	herbicidal effect ALOMY [4]	herbicidal effect against AVEFA (Avena fatua) [5]	herbicidal effect against ECHCG (Echinochloa crus-galli) [6]	herbicidal effect against LOLMU (Lolium multiflorum) [7]	herbicidal effect against SETVI (Setaria viridis) [8]	herbicidal effect against ALOMY (Alopecurus myosuroides) [9]	herbicidal effect AVEFA [10]	pest or weed control at 80 g/ha ([5]; 504 h, Avena fatua, read-out: herbicidal effect against AVEFA (Avena fatua))	pest or weed control at 80 g/ha ([6]; Echinochloa crus-galli, 504 h, read-out: herbicidal effect against ECHCG (Echinochloa crus-galli))	pest or weed control at 80 g/ha ([7]; Lolium multiflorum, 504 h, read-out: herbicidal effect against LOLMU (Lolium multiflorum))	pest or weed control at 80 g/ha ([8]; Setaria viridis, 504 h, read-out: herbicidal effect against SETVI (Setaria viridis))	pest or weed control at 80 g/ha ([9]; Alopecurus myosuroides, 504 h, read-out: herbicidal effect against ALOMY (Alopecurus myosuroides))
CCc1cc(C)cc(CC)c1C1=C(OC(=O)OC(C)C)C2CC3(CC2C1=O)OCCCO3 (centres unmarked) [I-c-34]	100%	100%	80%	90%	100%	100%	100%	90%	100%	60%	–	–	–	–	–
CCc1cc(C)cc(C)c1C1=C(O)C2CC3(COC(C)(C)O3)CC2C1=O (centres unmarked) [I-a-62]	100%	100%	90%	100%	80%	100%	100%	90%	100%	40%	–	–	–	–	–
C#CC(C)ON=C1CC2C(=O)C(c3c(CC)cc(C)cc3CC)=C(OC(=O)OCC)C2C1 (centres unmarked) [I-c-43]	80%	80%	0%	80%	0%	100%	100%	0%	100%	40%	–	–	–	–	–
CCOC1COC2(CC3C(=O)C(c4c(CC)cc(C)cc4CC)=C([O-])C3C2)OC1.[Na+] (centres unmarked) [I-f-14]	100%	100%	100%	100%	100%	100%	100%	100%	100%	70%	–	–	–	–	–
CCc1cc(C)cc(CC)c1C1=C(OC(=O)OC)C2CC3(CC2C1=O)OCC=CCO3 (centres unmarked) [I-c-21]	100%	100%	100%	90%	100%	100%	100%	100%	90%	70%	–	–	–	–	–
CCOC(=O)OC1=C(c2c(CC)cc(C)cc2CC)C(=O)C2CC3(CC12)OC(C)(C)C(C)(C)O3 (centres unmarked) [I-c-18]	100%	100%	10%	90%	0%	80%	90%	0%	60%	0%	–	–	–	–	–
CCc1cc(C)cc(CC)c1C1=C(O)C2CC(=NOCC(F)(F)F)CC2C1=O (centres unmarked) [I-a-70]	80%	80%	60%	80%	0%	100%	100%	60%	90%	60%	–	–	–	–	–
CCc1cc(C)cc(CC)c1C1=C(OC(=O)C(C)(C)C)C2CC3(COC(C)(C)O3)CC2C1=O (centres unmarked) [I-b-8]	90%	100%	90%	100%	70%	80%	100%	60%	90%	80%	–	–	–	–	–
CCc1cc(C)cc(CC)c1C1=C(OC(=O)C(C)(C)CC)C2CC3(CC2C1=O)OCCCO3 (centres unmarked) [I-b-30]	100%	100%	90%	100%	100%	100%	100%	90%	20%	70%	–	–	–	–	–
CCc1cc(C)cc(C)c1C1=C(OC(=O)OC)C2CC3(COC(C)(C)O3)CC2C1=O (mixture of isomers) [I-c-79]	100%	100%	80%	90%	70%	100%	100%	90%	100%	80%	–	–	–	–	–
CCc1cc(C)cc(CC)c1C1=C(OC(C)=O)[C@H]2C[C@@]3(COC(C)(C)O3)C[C@H]2C1=O [I-b-1]	40%	100%	70%	90%	–	–	–	–	–	40%	60%	100%	100%	40%	100%
CCc1cc(C)cc(CC)c1C1=C(OC(=O)OC)C2CC3(CC2C1=O)OCCCS3 (mixture of isomers) [I-c-32]	100%	100%	70%	80%	90%	90%	90%	80%	80%	70%	–	–	–	–	–
Cc1cc(C)c(C2=C(O)C3CC4(CC3C2=O)OCCO4)c(C)c1 (centres unmarked) [I-a-39]	0%	100%	30%	80%	20%	90%	100%	90%	100%	70%	–	–	–	–	–
COC(=O)OC1=C(c2c(C)cc(C)cc2C)C(=O)C2CC3(CC12)OCC(C)CO3 (mixture of isomers) [I-c-53]	0%	90%	60%	100%	80%	90%	100%	90%	100%	50%	–	–	–	–	–
CCOC(=O)OC1=C(c2c(CC)cc(C)cc2CC)C(=O)C2CC3(CC12)OCC(OCC)CO3 (centres unmarked) [I-c-26]	100%	100%	100%	100%	100%	100%	100%	100%	100%	80%	–	–	–	–	–
C=C1COC2(CC3C(=O)C(c4c(CC)cc(C)cc4CC)=C([O-])C3C2)OC1.[Na+] (centres unmarked) [I-f-20]	100%	100%	100%	100%	100%	100%	100%	100%	100%	70%	–	–	–	–	–
Cc1cc(C)c(C2=C(O)[C@H]3CC4(C[C@H]3C2=O)OCC(C)CO4)c(C)c1 (relative stereo) [I-a-38]	40%	100%	90%	100%	90%	80%	100%	90%	100%	40%	–	–	–	–	–

Reference: US8367873B2, “Phenyl-substituted bicyclooctane-1,3-dione derivatives” (Bayer Cropscience AG, priority 2008, dated 2013)
